In patent US20180185302A1, “METHODS FOR DOWNREGULATING APOBEC3B” (Regents of the University of Minnesota, priority 2015, published 2018):
Entries after “also recorded” stand apart in the source; their conditions may differ. Residues, ends and D or L forms follow the SMILES beside them. *: point of attachment. Cbz = O=C(OCc1ccccc1)*

Tests used:
APOBEC3B [1] = experiment: inhibitor pretreatment before PMA-induced APOBEC3B upregulation in MCF10A cells (RT-qPCR); type: cell-based, human; conditions: for suppression of PMA-induced APOBEC3B mRNA induction: 30-minute pretreatment with inhibitor, then PMA 25 ng/mL six hours
Protocol: PMA is a well-known agonist of PKC, but it also affects other cellular processes. To determine whether APOBEC3B induction by PMA occurs through PKC signal transduction or an alternative mechanism, we leveraged a panel of existing PKC inhibitors that each vary with respect to class selectivity. MCF10A cells were pre-treated for 30 minutes with varying concentrations of the pan-PKC inhibitor Gö6983 (Gschwendt et al., FEBS Lett. 392:77-80, 1996) and then treated for six hours with PMA (25 ng/mL). […] As additional controls, MCF10A cells were pretreated in parallel with the phosphoinositol 3 kinase (PI3K) inhibitor, LY294002, and the mitogen-activated protein kinase kinase (MEK) inhibitor, U0126, prior to PMA induction (FIGS. 2B and 2C).
(§1) For induction experiments, 2.5×10^5 cells were plated in a 6-well plate 1 day prior to drug treatment. PMA was then added to the media and incubated at 37° C. with 5% CO2 for six hours unless otherwise indicated. Cells were harvested, RNA was extracted, and RT-qPCR was performed as previously reported (Refsland et al. 2010, Nucleic Acids Res 38:4274-4284). For experiments utilizing inhibitors, cells were pretreated with inhibitors 30 minutes prior to PMA induction (25 ng/mL). PMA (Thermo Fisher Scientific, Inc., Waltham, Mass.), cyclohexamide (Acros Organics, Thermo Fisher Scientific, Inc., Waltham, Mass.), Gö6983 (Cayman Chemical co., Ann Arbor, Mich.), LY294002 (EMD Chemicals, Merck KGaA, Darmstadt, Germany), U0126 (EMD Chemicals, Merck KGaA, Darmstadt, Germany), AEB071 (Medchemexpress, Monmouth Junction, N.J.), Gö6976 (Enzo Life Sciences, Inc., Farmingdale, N.Y.), BAY 11-7082 (R&D Systems, INc., Minneapolis, Minn.), and MG132 (Thermo Fisher Scientific, Inc., Waltham, Mass.) were stored as recommended. NIKi/Compound 31 was synthesized as described (Li et al., 2013, Bioorganic & Medicinal Chemistry Letters 23:1238-1244).

MCF10A cells = experiment: morphology and viability of MCF10A cells under inhibitor; type: cell-based, human; conditions: low concentrations of Gö6983 (5 μM range), data not shown
Protocol: PMA is a well-known agonist of PKC, but it also affects other cellular processes. To determine whether APOBEC3B induction by PMA occurs through PKC signal transduction or an alternative mechanism, we leveraged a panel of existing PKC inhibitors that each vary with respect to class selectivity. MCF10A cells were pre-treated for 30 minutes with varying concentrations of the pan-PKC inhibitor Gö6983 (Gschwendt et al., FEBS Lett. 392:77-80, 1996) and then treated for six hours with PMA (25 ng/mL). […] APOBEC3B was suppressed to background levels with 5 μM Gö6983, as well as higher concentrations (FIG. 2A). […] As additional controls, MCF10A cells were pretreated in parallel with the phosphoinositol 3 kinase (PI3K) inhibitor, LY294002, and the mitogen-activated protein kinase kinase (MEK) inhibitor, U0126, prior to PMA induction (FIGS. 2B and 2C).

[2] = test system: IKKβ (canonical) over IKKα (non-canonical); conditions: reported in vitro IC50 values (Podolin et al., 2005); cited from earlier work
TNFα = TNFα mRNA expression in PMA-treated MCF10A cells (RT-qPCR); type: cell-based, human; conditions: titration of inhibitor, compared with APOBEC3B inhibition
Protocol: FIG. 3. Non-canonical NFκB signaling is responsible for APOBEC3B upregulation by PMA. […] MCF10A cells were treated with PMA following a 30-minute pretreatment with the indicated concentrations of each inhibitor. APOBEC3B mRNA expression is reported as the mean of three independent RT-qPCR reactions normalized to TBP (error bars report SD from triplicate assays). (C) Histogram depicting NFκB subunit mRNA levels in MCF10A cells treated with PMA or vehicle control. Expression was determined by RNA-seq and is reported as FKPM and normalized to TBP. […] MCF10A cells were treated with PMA following treatment with varying concentrations of TPCA-1. TNFα (light) and APOBEC3B (dark) mRNA levels are reported as the mean of three independent RT-qPCR reactions normalized to TBP (error bars report SD from triplicate assays). The dotted lines denote previously reported in vitro IC50 values for IKKα and IKKβ inhibition by TPCA-1 (Podolin et al., 2005, J Pharmacol Exp Ther. 312:373-381). (E) Histogram showing the kinetics of NFKBIA upregulation PMA. MCF10A cells were treated with PMA for the indicated times and mRNA values were quantified as in FIG. 3A. […]
Canonical signaling is known to require IKKβ, whereas non-canonical NFκB signaling is strictly dependent on IKKα-catalyzed phosphorylation of p100. […] As an additional control, TNFα, which is regulated by the canonical pathway, was analyzed.

APOBEC3B [3] = experiment: PMA induction of APOBEC3B mRNA in MCF10A cells (RT-qPCR); type: cell-based, human; conditions: 10 μg/mL cyclohexamide with PMA
Protocol: A panel of immortalized normal human epithelial cells lines and breast cancer cell lines was treated with PMA or equal amounts of DMSO as a negative control, and previously validated reverse transcription quantitative PCR (RT-qPCR) assays were used to measure mRNA levels of all eleven human APOBEC family members. APOBEC3B mRNA was induced specifically by PMA treatment of several lines including the immortalized normal breast epithelial cell line MCF10A (FIG. 1A and FIG. 6). Under standard cell culture conditions, MCF10A expresses low levels of APOBEC3B and APOBEC3F, even lower levels of APOBEC3G and APOBEC3H, high levels of APOBEC3C, and undetectable levels of all other APOBEC family members.
APOBEC3B was induced with as little as 1 ng/mL PMA, and its induction was dose responsive and near maximal at 25 ng/mL PMA (FIG. 1B, histogram). APOBEC3B mRNA levels correlated with a rise in steady-state protein levels as measured by immunoblotting with a rabbit anti-APOBEC3B monoclonal antibody (described in U.S. Provisional Patent Application No. 62/186,109. filed Jun. 29, 2015) and with enzymatic activity as measured by a gel-based single-stranded DNA cytosine deamination assay (FIG. 1B). […] APOBEC3B protein and activity levels lagged shortly behind mRNA levels and persisted through the duration of the time course (FIG. 1C, immunoblot and polyacrylamide gel). APOBEC3B upregulation may be a direct result of signal transduction as the kinetics of upregulation were not affected by simultaneously treating cells with the protein translation inhibitor cyclohexamide (FIG. 1D).
as §1

MCF-7 xenograft tumor = experiment: MCF-7 xenograft model for tamoxifen resistance; type: in vivo, mice
Excerpt: Human cancer cell lines, such as those listed above, and many others, upon engraftment into mice (e.g., subcutaneously, intraperotoneally, or otherwise), provide model systems for human tumor evolution, heterogeneity, and drug resistance. For instance, the estrogen-receptor positive breast cancer cell line MCF7L is a model for endocrine therapy and resistance.
The MCF-7 system may be adapted for evaluating APOBEC3 mutagenesis and drug resistance by creating derivative lines expressing low APOBEC3B (e.g., shRNA transduced) and high APOBEC3B (empty vector transduced) using lentivirus transduction followed by selection with 1 μg/ml puromycin for one week (Burns et al., 2013, Nature 494:366-370) and determine whether endogenous APOBEC3B contributes to the development of tamoxifen resistance. Five-million engineered cells are injected subcutaneously (xenografted) into athymic/ovariectomized nude-Foxnlnu (4-5 weeks old, The Jackson Laboratory, Bar Harbor, Me.). Each animal's drinking water is supplemented with 1 μM estradiol to provide continuous hormonal stimulation. The xenografted cells form large tumors within 150 days post-engraftment and depleting endogenous APOBEC3B causes a modest delay in tumor growth (dark square versus dark circle symbols in FIG. 8).

With `Cc1ccc(S(=O)(=O)/C=C/C#N)cc1` [BAY 11-7082] the “suppression of PMA-induced APOBEC3B mRNA induction” value (shortened to “suppression”) (APOBEC3B [1]) was “dose responsive inhibition; also recorded: strong dose-responsive drops”.

In the case of `CN(C)CCCn1cc(C2=C(c3c[nH]c4ccccc34)C(=O)NC2=O)c2ccccc21` [BIM-1, bisindolylmaleimide-1], the “suppression” value (APOBEC3B [1]) is reported as “inhibited; also recorded: nearly identical dose dependent suppression”.

For `Cn1c2ccccc2c2c3c(c4c5ccccc5n(CCC#N)c4c21)CNC3=O` [Gö6976], the “suppression” value (APOBEC3B [1]) was “inhibited”.

In the case of `COc1ccc2c(c1)c(C1=C(c3c[nH]c4ccccc34)C(=O)NC1=O)cn2CCCN(C)C` [Gö6983], the “suppression” value (APOBEC3B [1]) is reported as “inhibited; also recorded: dose responsive suppression”, the “concentration that suppressed APOBEC3B to background levels” value (APOBEC3B [1]; 30-minute pretreatment, PMA 25 ng/mL six hours) is reported as 5 µM and the “morphological defects or viability issues” value (MCF10A cells) is reported as “No morphological defects or viability issues”.

With `CC(C)C[C@@H](C=O)NC(=O)[C@H](CC(C)C)NC(=O)[C@H](CC(C)C)NC(=O)OCc1ccccc1` [MG132] (Cbz-Leu-Leu-Leu-aldehyde) the “suppression” value (APOBEC3B [1]) was “dose responsive inhibition; also recorded: decreased in a dose dependent manner”.

In the case of `NC(=O)Nc1sc(-c2ccc(F)cc2)cc1C(N)=O` [TPCA-1], the “selectivity for IKKβ (canonical) over IKKα (non-canonical)” value [2] is listed as 22 fold, the “suppression” value (APOBEC3B [1]) is listed as “near the IC50 for IKKα, not IKKβ; also recorded: inhibited closer to the reported IC50 of IKKα” and the “inhibition of TNFα expression” value (TNFα) is listed as “inhibited by much lower concentrations”.

With `N#CC(=C(/N)Sc1ccccc1N)/C(C#N)=C(\N)Sc1ccccc1N` [U0126] the “suppression” value (APOBEC3B [1]) was “not and no suppression”.

In the case of `C[C@@H]1C[C@@H]([C@H](O)CC2CC(=O)NC(=O)C2)C(=O)[C@@H](C)C1` [cyclohexamide], the “effect on kinetics of PMA-induced APOBEC3B upregulation” value (APOBEC3B [3]) is reported as “not affected”.

With `CC/C(=C(\c1ccccc1)c1ccc(OCCN(C)C)cc1)c1ccccc1` [tamoxifen] the “tumor growth of MCF-7 derivative lines” value (MCF-7 xenograft tumor; 500 μg 5 days/week subcutaneous injection, APOBEC3B high and low lines, mice) was “arrested the growth of both derivative lines for several months”, the “development of resistance, cells expressing high levels of APOBEC3B” value (MCF-7 xenograft tumor; 500 μg 5 days/week subcutaneous, year-long experiment) was “invariably developed resistance” and the “development of resistance, APOBEC3B low cell masses” value (MCF-7 xenograft tumor; 500 μg 5 days/week subcutaneous, year-long experiment, n=5 animals/condition) was “only one of the APOBEC3B low cell masses became resistant”.
